Measurements taken from patent US11976083B2, “Inhibitors of peptidylarginine deiminases” (Gilead Sciences, Inc., priority 2020, dated 2024).

molecular target: T1, human PAD4 (Homo sapiens, UniProt Q9UM07); test: In vitro PAD4 BAEE biochemical assay; details: BAEE substrate 3 mM, 5 nM PAD4, 2 mM calcium chloride; geometric mean of multiple experiments
T1 construct: human PAD4 (NM_012387), A2-P663, was PCR amplified; His-SUMO (N, cleaved yes); made in house; host or cells: E. coli BL21(DE3)
Procedure, shortened: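 Fluorescence read-out (ex 405/em 535 nm) of isoindole formed from ammonia, o-phthalaldehyde and DTT after EDTA stop. Reaction: 5 nM PAD4, 2 mM CaCl2, 3 mM BAEE, 2 h, 25 °C, after 30 min enzyme–compound preincubation. Normalised to BB-Cl-Amidine (50 µM) and DMSO controls.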

T1 sequence (Q9UM07 2-663): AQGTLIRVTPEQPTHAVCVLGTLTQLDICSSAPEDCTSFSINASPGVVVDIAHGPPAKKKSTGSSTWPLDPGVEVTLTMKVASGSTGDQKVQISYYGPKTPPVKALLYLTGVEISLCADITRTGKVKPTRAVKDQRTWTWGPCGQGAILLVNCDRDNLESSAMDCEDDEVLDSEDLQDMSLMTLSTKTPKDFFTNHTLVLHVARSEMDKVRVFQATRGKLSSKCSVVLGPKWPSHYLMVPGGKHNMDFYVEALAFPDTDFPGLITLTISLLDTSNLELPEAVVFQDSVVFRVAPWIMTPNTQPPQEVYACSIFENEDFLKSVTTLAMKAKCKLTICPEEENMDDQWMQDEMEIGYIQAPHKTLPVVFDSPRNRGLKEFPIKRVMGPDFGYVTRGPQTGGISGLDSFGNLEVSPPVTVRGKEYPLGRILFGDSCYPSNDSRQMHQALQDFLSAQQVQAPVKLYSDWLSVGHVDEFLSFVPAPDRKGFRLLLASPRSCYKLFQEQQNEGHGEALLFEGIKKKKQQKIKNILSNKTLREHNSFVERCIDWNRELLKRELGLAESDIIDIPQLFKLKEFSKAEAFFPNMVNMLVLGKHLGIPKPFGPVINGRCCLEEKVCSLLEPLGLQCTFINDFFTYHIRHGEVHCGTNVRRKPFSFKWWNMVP

IC50 [nM]	Compound
39	COc1cc(C(=O)N2C[C@H](N)[C@H](OC)[C@@H](F)C2)cc2nc(-c3cc4ccc5nc4n3CC(F)(F)CCC[C@@H]3C[C@H]3C(=O)N[C@@H]5C)n(C)c12 [Example 681, (2~{R},5~{R},7~{R})-14-[5-[(3~{S},4~{S}, 5~{S})-3-amino-5-fluoro-4-methoxy-piperidine-1-carbonyl]-7-methoxy-1-methyl-benzimidazol-2-yl]-11,11-difluoro-2-methyl-3,13,19-triazatetracyclo [11.5.2.0^{5,7}.0^{16,20}] icosa-1(19),14,16(20), 17-tetraen-4-one]
69	CC(C)n1c(-c2cc3ccc4nc3n2CCCCCc2nc(Cl)ccc2C(=O)N[C@@H]4C)nc2cc(C(=O)N3C[C@H](N)[C@@H]4CC[C@H]3C4)cc(F)c21 [Example 946, (2~{R})-17-[5-[(1~{S},4~ {R},5~{R})-4-amino-2-azabicyclo [3.2.1]octane-2-carbonyl]-7-fluoro-1-isopropyl-benzimidazol-2-yl]-8-chloro-2-methyl-3,9,16,22-tetrazatetracyclo[14.5.2.0^ {5,10}.0^{19,23}]tricosa-1(22),5(10),6,8,17,19(23),20-heptaen-4-one]
77	COc1cc(C(=O)N2CCC[C@@H](N)C2)cc2nc(-c3cc4ccc5nc4n3CCCCCC(C)(C)C(=O)N[C@@H]5C)n(C)c12 [Example 58, (10~{R})-16-[5-[(3~{R})-3-aminopiperidine-1-carbonyl]-7-methoxy-1-methyl-benzimidazol-2-yl]-7,7,10-trimethyl-1,9,18-triazatricyclo[9.5.2.0^{14,17}]octadeca-11(18),12,14(17),15-tetraen-8-one]
175	COc1cc2c(cc1C(=O)N[C@H]1CNCC[C@@H]1F)nc(-c1cc3ccc4nc3n1CCCCCCC(C)(C)C(=O)N[C@@H]4C)n2C [Example 592, ~{N}-[(3~{S},4~{S})-4-fluoro-3-piperidyl]-6-methoxy-1-methyl-2-[(11~{R})-8,8,11-trimethyl-9-oxo-1,10,19-triazatricyclo[10.5.2.0^ {15,18}]nonadeca-12,14,16,18-tetraen-17-yl]benzimidazole-5-carboxamide]
47	COc1cc(C(=O)N2[C@H]3CC[C@@H]2[C@H](N)C3)cc2nc(-c3cc4ccc5nc4n3CCCCOCC(=O)N3CCC[C@H]53)n(C)c12 [Example 133, (2~{R})-15-[5-[(1~{R},2~{R},4~{S})-2-amino-7-azabicyclo[2.2.1]heptane-7-carbonyl]-7-methoxy-1-methyl-benzimidazol-2-yl]-9-oxa-6,14,20-triazatetracyclo[12.5.2.0^{2,6}.0^{17,21}] henicosa-1(20),15,17(21),18-tetraen-7-one]
2470	COc1cc(C(=O)N2[C@H]3CC[C@@H]2[C@H](N)C3)cc2nc(-c3cc4ccc5nc4n3CCCCCCCC(=O)N[C@H]5C(F)(F)F)n(C)c12 [Example 257, (11~{R})-17-[5-[(1~{R},2~{R},4~{S})-2-amino-7-azabicyclo[2.2.1]heptane-7-carbonyl]-7-methoxy-1-methyl-benzimidazol-2-yl]-11-(trifluoromethyl)-1,10,19-triazatricyclo[10.5.2.0^{15,18}]nonadeca-12(19),13,15(18),16-tetraen-9-one]
74	COc1cc(C(=O)N2CC[C@@H](OC)[C@@H](N)C2)cc2nc(-c3cc4ccc5nc4n3CCCCCc3ccnc(C)c3C(=O)N[C@@H]5C)n(C)c12 [Example 697, (2~{R})-17-[5-[(3~{S}, 4~{R})-3-amino-4-methoxy-piperidine-1-carbonyl]-7-methoxy-1-methyl-benzimidazol-2-yl]-2,6-dimethyl-3,7,16,22-tetrazatetracyclo[14.5.2.0^ {5,10}.0^{19,23}] tricosa-1(22),5(10),6,8,17, 19(23),20-heptaen-4-one]
90	C[C@H]1NC(=O)C(C)(C)CCCCCCn2c(-c3nc4cc(C(=O)N[C@H]5CNCC[C@@H]5F)ccc4n3C)cc3ccc1nc32 [Example 500, ~{N}-[(3~{S},4~ {S})-4-fluoro-3-piperidyl]-1-methyl-2-[(11~{R})-8,8,11-trimethyl-9-oxo-1,10,19-triazatricyclo[10.5.2.0^ {15,18}]nonadeca-12(19), 13,15(18),16-tetraen-17-yl]benzimidazole-5-carboxamide]
661	COc1cc(C(=O)N2C[C@H](N)C[C@@H](F)[C@@H]2C)cc2nc(-c3cc4ccc5nc4n3CCCCCCC(C)(C)C(=O)N[C@@H]5C)n(C)c12 [Example 795, (11~{R})-17-[5-[(2~{S),3~{R},5~ {R})-5-amino-3-fluoro-2-methyl-piperidine-1-carbonyl]-7-methoxy-1-methyl-benzimidazol-2-yl]-8,8,11-trimethyl-1,10,19-triazatricyclo[10.5.2.0^ {15,18}]nonadeca-12,14,16,18-tetraen-9-one]
60	Cc1cc2c(cc1C(=O)N[C@H]1CNCC[C@@H]1F)nc(-c1cc3ccc4nc3n1CC(F)(F)/C=C/C[C@H]1C[C@@H]1C(=O)N[C@@H]4C)n2C [Example 550, 2-[(2~{R},5~{S},7~ {S},9~{E})-11,11-difluoro-2-methyl-4-oxo-3,13,19-triazatetracyclo [11.5.2.0^{5,7}.0^{16,20}]icosa-1(19),9,14,16(20), 17-pentaen-14-yl]-~{N}-[(3~{S},4~{S})-4-fluoro-3-piperidyl]-1,6-dimethyl-benzimidazole-5-carboxamide]
80	COc1cc(C(=O)N2CC[C@@H](OC)[C@@H](N)C2)cc2nc(-c3cc4ccc5nc4n3CCCCC[C@@H]3C[C@H]3C(=O)N[C@@H]5C)n(C)c12 [Example 174, (2~{R},5~{R},7~{R})-14-[5-[(3~{S),4~{R})-3-amino-4-methoxy-piperidine-1-carbonyl]-7-methoxy-1-methyl-benzimidazol-2-yl]-2-methyl-3,13,19-triazatetracyclo[11.5.2.0^{5,7}.0^{16,20}] icosa-1(19),14,16(20),17-tetraen-4-one]
53	C[C@H]1NC(=O)c2cccc(F)c2CCCCCn2c(-c3nc4cc(C(=O)N[C@H]5CNCC[C@@H]5F)c(F)cc4n3C)cc3ccc1nc32 [Example 352, 6-fluoro-2-[(2~{R})-9-fluoro-2-methyl-4-oxo-3,16,22-triazatetracyclo[14.5.2.0^{5,10).0^{19,23}]tricosa-1(22),5,7,9,17,19(23),20-heptaen-17-yl]-~{N}-[(3~{S),4~{S})-4-fluoro-3-piperidyl]-1-methyl-benzimidazole-5-carboxamide]
40	COc1cc(C(=O)N2CCC[C@@H](N)C2)cc2nc(-c3cc4ccc5nc4n3C[C@H]3C[C@H]3CC[C@@H]3C[C@H]3C(=O)N[C@@H]5C)n(C)c12 (single isomer, unassigned) [Example 115, (3˜{S},5˜{R},8˜{R},10˜{R},13˜{R})-19-[5-[(3˜{R})-3-aminopiperidine-1-carbonyl]-7-methoxy-1-methyl-benzimidazol-2-yl]-13-methyl-1,12,21-triazapentacyclo[12.5.2.0^{3,5}.0^{8,10}.0^{17,20}]henicosa-14(21),15,17(20),18-tetraen-11-one]
31	C[C@H]1NC(=O)[C@@H]2C[C@H]2CCCCCn2c(-c3nc4cc(C(=O)N[C@H]5CNCC[C@@H]5F)c(F)cc4n3[C@H]3C[C@H]3F)cc3ccc1nc32 [Example 826, 6-fluoro-1-[(1~{S},2~{R})-2-fluorocyclopropyl]-~{N}-[(3~{S),4~{S})-4-fluoro-3-piperidyl]-2-[(2~{R},5~{R},7~ {R})-2-methyl-4-oxo-3,13,19-triazatetracyclo [11.5.2.0^{5,7}.0^{16,20}]icosa-1(19),14,16(20),17-tetraen-14-yl]benzimidazole-5-carboxamide]
622	COc1cc(C(=O)N2CCC[C@@H](N)C2)cc2nc(-c3cc4ccc5nc4n3CCCCCCCC(=O)N(C)C5)n(C)c12 [Example 234, 17-[5-[(3˜{R})-3-aminopiperidine-1-carbonyl]-7-methoxy-1-methyl-benzimidazol-2-yl]-10-methyl-1,10,19-triazatricyclo[10.5.2.0^{15,18}]nonadeca-12(19),13,15(18),16-tetraen-9-one]
53	C[C@H]1NC(=O)[C@@H]2C[C@H]2CCCC(F)(F)Cn2c(-c3nc4cc(C(=O)N5C[C@H](N)[C@@H]6CC[C@H]5C6)cc(F)c4n3[C@H]3C[C@@H]3C(F)F)cc3ccc1nc32 (single isomer, unassigned) [Example 453, (2~{R},5~{R},7~{R})-14-[5-[(1~{S},4~{R},5~{R})-4-amino-2-azabicyclo[3.2.1]octane-2-carbonyl]-1-[(1~{S},2~{S})-2-(difluoromethyl)cyclopropyl]-7-fluoro-benzimidazol-2-yl]-11,11-difluoro-2-methyl-3,13,19-triazatetracyclo[11.5.2.0^{5,7}.0^{16,20}] icosa-1(19),14,16(20),17-tetraen-4-one]
21	COc1cc(C(=O)N2[C@H]3CC[C@@H]2[C@H](N)C3)cc2nc(-c3cc4ccc5nc4n3CCCCCCCCC(=O)N3CCC[C@H]53)n(C)c12 [Example 130, (2~{R})-17-[5-[(1~{R},2~{R},4~{S})-2-amino-7-azabicyclo[2.2.1]heptane-7-carbonyl]-7-methoxy-1-methyl-benzimidazol-2-yl]-6,16,22-triazatetracyclo[14.5.2.0^{2,6}.0^{19,23}] tricosa-1(22),17,19(23),20-tetraen-7-one]

Compound	IC50 [nM]
COc1cc(C(=O)N2CC[C@H]3OCCN[C@H]3C2)cc2nc(-c3cc4ccc5cc4n3CCCCCCC(C)(C)C(=O)N[C@@H]5C)n(C)c12 [Example 190, (11~{R})-17-[5-[(4~{a}~{S},8~{a}~{R})-2,3,4,4~{a},5,7,8,8~{a}-octahydropyrido[4,3-b][1,4]oxazine-6-carbonyl]-7-methoxy-1-methyl-benzimidazol-2-yl]-8,8,11-trimethyl-1,10-diazatricyclo[10.5.2.0^{15,18}]nonadeca-12(19),13,15(18),16-tetraen-9-one]	94
